Measurements: US11235023B2, “Beta-hairpin peptidomimetic with elastase inhibitory activity and aerosol dosage forms thereof” (POLYPHOR AG, priority 2016, dated 2022)
Non-standard residues stand in square brackets, D forms with d. Residues, ends and D or L forms follow the SMILES beside them. Gly(octyl) = CCCCCCCC[C@H](N)C(=O)O

Biological target: T1, human neutrophil elastase (Homo sapiens, UniProt P08246)
T1 construct: from tissue; host or cells: spontaneous sputum of patients with cystic fibrosis (PBS-soluble fraction)
T1 sequence (P08246 30-267): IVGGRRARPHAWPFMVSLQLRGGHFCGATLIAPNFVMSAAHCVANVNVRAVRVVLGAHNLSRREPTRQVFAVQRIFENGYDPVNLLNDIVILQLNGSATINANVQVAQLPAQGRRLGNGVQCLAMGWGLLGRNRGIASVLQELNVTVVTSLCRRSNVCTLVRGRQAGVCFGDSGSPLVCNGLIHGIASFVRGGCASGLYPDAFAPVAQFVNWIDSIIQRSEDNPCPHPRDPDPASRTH
Experiment: Phase-Ib study in CF patients, active neutrophil elastase in sputum by FRET assay
Format: in vivo
Protocol: The pharmacodynamic effect of ascending single doses of active compound was investigated by evaluation of neutrophil elastase (NE) activity in sputum using FRET (fluorescence resonance energy transfer) assay after PBS aliquotation and freezing.
On the day of screening, if possible, for baseline assessment of NE activity, on Day −1 as soon as possible after the subject's arrival at the study site for baseline assessment of NE activity, on Day 1 in the period of time between 1 h and 3 h after start of inhalation, and in the morning of Day 2, at approx. 24 h after start of inhalation.
Spontaneous sputum samples were collected in polystyrene Petri dishes and put on ice immediately. All processing steps had to be performed with cold reagents and on ice whenever possible. Plugs were separated from saliva, but the latter was not discarded. If a sputum sample was taken for both PK and NE activity in sputum analysis, the plug was split in 2 approximately equal parts. One part was processed for evaluation of NE activity in sputum the other one for PK analysis, as described above.
For evaluation of NE activity in sputum, at first, the weight of the sputum sample was determined and 8 mL cold phosphate-buffered saline (PBS) per gram purified sputum was added. The sample was vortexed for 30 s at room temperature (15-24° C.). Then, the soluble fraction was separated from the sputum pellet by centrifugation (10 min at 1000×g and 4° C.). The supernatant was transferred to a fresh tube.
Remaining insoluble particles were separated by a second centrifugation step at 3500×g for 15 min at 4° C. If the supernatant was not aliquoted immediately, the PBS/sputum supernatant was transferred to a fresh tube.
10 aliquots of 50 μL PBS/sputum were transferred into transfer tubes for evaluation. Moreover, 4 aliquots of 50 μL PBS/sputum were transferred into transfer tubes as backup. In case there was a leftover, the remaining volume was immediately transferred into a transfer tube for evaluation. Any leftover exceeding 2.0 mL was discarded.
The NE activity in sputum was evaluated by using a FRET elastase assay adapted from an assay described in Nature Protocols, 2008, 3, 991 (B. Korkmaz, S. Attucci, M. A. Juliano et al.) and validated by MLM Medical Labs GmbH, Mönchengladbach, Germany.
The assay is based on the reaction of human neutrophil elastase with the substrate 2Abz-Ala-Pro-Glu-Glu-Ile-Met-Arg-Arg-Gln-Tyr(3NO2)—OH (GeneCust Europe S. A., Ellange, Luxembourg, #P160301-SY452824). By adding the substrate solution the enzyme reaction is started and the elastase present in the samples reacts with added substrate. The product of the reaction is detected through fluorescence measurement and the initial reaction velocity is determined. The concentration of active elastase in the unknown samples is back-calculated using the calibration curve calculated from the standards.
An elastase reference stock solution (human neutrophil elastase [ELA2], Höltzel Diagnostika, Köln, Germany, #PN31255) with known enzymatic activity was prepared. The exact active elastase enzyme concentration was determined by titration against an alpha 1-antitrypsin solution (Athens Research and Technology, Athens, USA, #16-16-011609), with a defined concentration. The active elastase reference stock solution was adjusted by addition of PBS to a concentration of 3000 nM and aliquots were stored at −80° C.
The FRET assay was performed in 96 well white microtiter plates in total volume of 100 μL per well. PBS sputum dilutions of 1:5, 1:50 and 1:100 in elastase reaction buffer (50 mM HEPES, pH 7.4, 750 mM NaCl, 0.05% [v/v] NP-40) were prepared, 5 uL loaded per well and 90 uL elastase reaction buffer were added. A 5 mM substrate stock solution of 2Abz-Ala-Pro-Glu-Glu-Ile-Met-Arg-Arg-Gln-Tyr(3NO2)—OH in 30% (v/v) N,N-dimethylformamide/water was prepared and further diluted to 400 nM by addition of elastase reaction buffer. […]

In the case of CCCCCCCC[C@@H]1NC(=O)[C@@H]2CCCN2C(=O)[C@H]2CCCN2C(=O)[C@H](Cc2ccc(O)cc2)NC(=O)[C@H](CCCCN)NC(=O)[C@H](CCC(N)=O)NC(=O)[C@@H]2CCCN2C(=O)[C@@H]2CCCN2C(=O)[C@H]([C@@H](C)CC)NC(=O)[C@H](CO)NC(=O)[C@H](C)NC(=O)[C@H]([C@@H](C)O)NC(=O)[C@H](CCC(=O)O)NC1=O [active compound, cyclo(-OctG-Glu-Thr-Ala-Ser-Ile-Pro-Pro-Gln-Lys-Tyr-^DPro-Pro-)] (cyclo([Gly(octyl)]ETASIPPQKY[dP]P)), the “Mean concentration of active NE in sputum after single-dose inhalation” value (CF patients, 80-320 mg, extent independent of dose) was “strongly decreased”, the “Mean concentration of active NE in sputum at 24 h after inhalation” value (CF patients, high data variability) was “returned to baseline levels” and the “Mean (SD) concentration of active NE in sputum” value (shortened to “Mean (SD) concentration”) (dose level 1 (80 mg), 1-3 h after inhalation, predose 18823.6 (19758.72)) was 612.5 (1218.62) ng/mL. The “Mean (SD) concentration” value (dose level 1 (80 mg), 24 h after inhalation) was 1467.7 (2154.43) ng/mL, the “Mean (SD) concentration” value (dose level 2 (160 mg), 1-3 h after inhalation, predose 9548.7 (6222.55)) was 115.0 (0.00) ng/mL and the “Mean (SD) concentration” value (dose level 2 (160 mg), 24 h after inhalation) was 16849.4 (23518.56) ng/mL. For the same compound, the “Mean (SD) concentration” value (dose level 3 (320 mg), 1-3 h after inhalation, predose 10480.7 (10528.00)) was 115.0 (0.00) ng/mL, the “Mean (SD) concentration” value (dose level 3 (320 mg), 24 h after inhalation) was 7712.5 (11394.04) ng/mL and the “Inhibition of active elastase in sputum” value (over several hours after single dose, all dose groups (FIG. 5)) was > 90%.
